Results published in the supplement of paper PMC10307832.

compound: CC1(C)CNc2cc(NC(=O)c3cccnc3NCc3ccncc3)ccc21 [Motesanib] + Cc1cc(Nc2cc(N3CCN(C)CC3)nc(Sc3ccc(NC(=O)C4CC4)cc3)n2)n[nH]1 [Tozasertib] (partner 0.1 µM); test: relative viability (nuclei count vs DMSO), 5 days (fraction); higher = more cells survive; details: first compound 0.01 µM
How it was run: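 Lung cancer cell lines, seeded in 1536-well plates, were treated the following day by pin tool with a single drug or with five library-drug doses (not always all listed) in √10 steps on top of a fixed anchor-drug dose. Cells were fixed and nuclei stained in one step after 5 days, and nuclei were counted. Relative viability is the nuclei count for treated wells divided by that for vehicle wells, reported as medians of duplicate plates.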

Cell Line	relative viability
LU99A	0.262
BEN	0.505
HARA	0.117
HCC-78	0.486
NCI-H322M	0.494
LCLC-97TM1	0.2
A-427	0.185
NCI-H441	0.675
NCI-H1734	0.312
NCI-H460	0.416
NCI-H2347	0.466
NCI-H1395	0.777
201T	0.888
NCI-H1915	0.401
HCC-827	0.405
LXF-289	0.228
NCI-H23	0.346

Cell Line	relative viability
NCI-H647	0.304
CAL-12T	0.348
NCI-H1651	0.67
EPLC-272H	0.293
NCI-H1355	0.556
NCI-H3122	0.301
NCI-H1437	0.398
NCI-H1755	0.498
HCC-15	0.454
NCI-H1793	0.37
PC-14	0.563
EKVX	0.368
LC-2-ad	0.447
NCI-H1944	0.258
NCI-H1975	0.771
RERF-LC-KJ	0.536
ABC-1	0.174

same assay, conditions: first compound 0.03162 µM

Cell Line	relative viability
LU99A	0.234
BEN	0.529
HARA	0.0896
HCC-78	0.373
NCI-H322M	0.442
LCLC-97TM1	0.178
A-427	0.191
NCI-H441	0.518
NCI-H1734	0.253
NCI-H460	0.266
NCI-H2347	0.445
NCI-H1395	0.779
201T	0.833
NCI-H1915	0.408
HCC-827	0.425
LXF-289	0.182
NCI-H23	0.31

Cell Line	relative viability
NCI-H647	0.239
CAL-12T	0.254
NCI-H1651	0.655
EPLC-272H	0.234
NCI-H1355	0.414
NCI-H3122	0.369
NCI-H1437	0.375
NCI-H1755	0.588
HCC-15	0.278
NCI-H1793	0.268
PC-14	0.657
EKVX	0.381
LC-2-ad	0.362
NCI-H1944	0.229
NCI-H1975	0.65
RERF-LC-KJ	0.478
ABC-1	0.188

same assay, conditions: first compound 0.1 µM

Cell Line	relative viability
LU99A	0.263
BEN	0.627
HARA	0.097
HCC-78	0.476
NCI-H322M	0.502
LCLC-97TM1	0.257
A-427	0.24
NCI-H441	0.66
NCI-H460	0.514
NCI-H2347	0.548
NCI-H1395	0.816
201T	1.05
NCI-H1915	0.478
HCC-827	0.464
LXF-289	0.184
NCI-H23	0.341

Cell Line	relative viability
NCI-H647	0.285
CAL-12T	0.351
NCI-H1651	0.754
NCI-H1355	0.639
NCI-H3122	0.409
NCI-H1437	0.393
NCI-H1755	0.568
HCC-15	0.372
NCI-H1793	0.422
PC-14	0.518
EKVX	0.356
LC-2-ad	0.439
NCI-H1944	0.233
NCI-H1975	0.773
RERF-LC-KJ	0.527
ABC-1	0.226

same assay, conditions: first compound 0.3162 µM

Cell Line	relative viability
LU99A	0.273
BEN	0.547
HARA	0.133
HCC-78	0.355
NCI-H322M	0.485
LCLC-97TM1	0.279
A-427	0.236
NCI-H441	0.543
NCI-H1734	0.25
NCI-H460	0.442
NCI-H2347	0.524
NCI-H1395	0.757
201T	0.923
NCI-H1915	0.456
HCC-827	0.48
LXF-289	0.27
NCI-H23	0.363

Cell Line	relative viability
NCI-H647	0.404
CAL-12T	0.384
NCI-H1651	0.732
EPLC-272H	0.253
NCI-H1355	0.59
NCI-H3122	0.475
NCI-H1437	0.423
NCI-H1755	0.652
HCC-15	0.451
NCI-H1793	0.321
PC-14	0.618
EKVX	0.432
LC-2-ad	0.476
NCI-H1944	0.236
NCI-H1975	0.711
RERF-LC-KJ	0.501
ABC-1	0.197

same assay, conditions: first compound 1 µM

Cell Line	relative viability
LU99A	0.263
BEN	0.543
HARA	0.0863
HCC-78	0.403
NCI-H322M	0.447
LCLC-97TM1	0.17
A-427	0.173
NCI-H441	0.578
NCI-H1734	0.254
NCI-H460	0.485
NCI-H2347	0.443
NCI-H1395	0.773
201T	0.97
NCI-H1915	0.434
HCC-827	0.431
LXF-289	0.212
NCI-H23	0.333
NCI-H647	0.359
CAL-12T	0.371
NCI-H1651	0.797
EPLC-272H	0.253
NCI-H1355	0.448
NCI-H3122	0.452
NCI-H1437	0.408
NCI-H1755	0.537
HCC-15	0.392
